The values below come from the METLIN SMRT retention time set (Domingo-Almenara et al. 2019).

This data set can be described thus: gradient 5% acetonitrile 3 min, to 50% in 2 min, to 85% in 15 min, held 3 min, 100 µL/min. The settings on record: column: Zorbax Extend-C18 2.1 x 50 mm; eluents: water / acetonitrile, 0.1% formic acid. The procedure, abridged:
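In both positive and negative ionization mode, a quadrupole time-of-flight mass spectrometer coupled to HPLC analyzed pure standards run in mixtures of ~100 molecules. The Zorbax Extend-C18 column (2.1 × 50 mm, 1.8 μm) was operated at 100 μL/min with water and acetonitrile, each containing 0.1% formic acid. The dead volume was 40 μL and the dwell volume 900 μL. Retention time came from adduct peaks that were computationally picked and individually inspected by hand.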
Take `Cc1cccc(CCNC(=O)Cc2csc3nc(-c4ccccc4)cn23)c1`: the RP-LC retention time was 810 s.

`CC(=O)N1CCC(NC(=O)Nc2cccc(C)c2)C1` (centres undefined) gave an RP-LC retention time of 635 s.

`Cn1cc(C(=O)NCc2cc(F)cc(F)c2)c(S(=O)(=O)N2CCSCC2)n1` showed an RP-LC retention time of 1010 s.

On to `COc1cc(NC(=O)CCc2c(C)nn3cnnc3c2C)cc(OC)c1`, for which the RP-LC retention time came out at 662 s.

Take `COc1ccc(CNC(=O)CN2C(=O)NC3(CCCCC3)C2=O)cc1OC`: the RP-LC retention time was determined as 659 s.

In turn, `Cc1ccc(CNS(=O)(=O)c2cn(CC(C)C)c3ncccc23)cc1` showed an RP-LC retention time of 1050 s.

On to `CCOC(=O)c1ccc(NS(=O)(=O)c2cc3n(c2)CCCN(CC)C3=O)cc1`, for which the RP-LC retention time came to 759 s.

`O=C(NC1CCCCCC1)c1cccc(Cn2cncn2)c1` had an RP-LC retention time of 729 s.

In the case of `Cc1ccc(C(=O)N2CCC(n3c(C)cnc3C)C2)s1` (centres undefined), the RP-LC retention time amounted to 585 s.

With `COc1cc(C(=O)N2CCN(c3c(C)n(C)c(=O)n(C)c3=O)CC2)cc(OC)c1OC`, the RP-LC retention time was found to be 673 s.

In turn, `COCCOC1CCN(S(=O)(=O)c2ccccc2C)CC1` came in with an RP-LC retention time of 810 s.

The compound `CCCN(CC1CCOC1)C(=O)Nc1ccccc1C(F)(F)F` (centres undefined) displayed an RP-LC retention time of 871 s.

`COc1ccc2[nH]cc(CCNC(=O)Cn3nc4c(cc3=O)CCCC4)c2c1` displayed an RP-LC retention time of 714 s.

Regarding `CCc1ccccc1NC(=O)Cc1c(C)n(C)c2nc(-c3ccccc3)nn2c1=O`, the RP-LC retention time was 865 s.

Take `COc1cc(-c2noc(-c3cn(C)c4ccc(C)cc4c3=O)n2)cc(OC)c1OC`: the RP-LC retention time is 827 s.

For `O=C(CSC1CCc2ccccc2NC1=O)Nc1ccc(F)c(Cl)c1` (centres undefined), the RP-LC retention time came to 873 s.

Regarding `CCOC(=O)c1cnc2nc(C)ccc2c1Nc1ccc(Cl)cc1`, the RP-LC retention time was determined as 752 s.

Consider `COc1ccc(OC)c(NC(=O)N(C)CCc2noc(COc3ccccc3F)n2)c1`, for which the RP-LC retention time turned out to be 932 s.

`CCOc1ccc(C(=O)NC2CCN(c3cc(-c4ccc(OC)cc4)[nH]n3)C2)cc1OCC` (centres undefined) registered an RP-LC retention time of 742 s.

Turning to `COc1ccc(Cl)cc1NC(=O)CSc1ccc(-c2ccco2)nn1`, the RP-LC retention time is 944 s.

Turning to `CCCNC(=O)N1CCCCC1c1n[nH]c(C)n1` (centres undefined), the RP-LC retention time is 577 s.

`Cc1cc(C)cc(C(=O)NCc2ccc3c(c2)CCCN3C(=O)C2CCC2)c1` returned an RP-LC retention time of 981 s.

In turn, `O=C(O)C1CCCN(c2cc(-n3ccnc3)ncn2)C1` (centres undefined) yielded an RP-LC retention time of 537 s.

`Cn1nc(CNC(=O)c2ccc(Br)o2)c2ccccc21`: the RP-LC retention time is 795 s.

Regarding `COc1cccc(NC(=O)C2CCCN(c3nc4ccccc4nc3OC)C2)c1` (centres undefined), the RP-LC retention time was 1100 s.

As for `CN(C)c1cccc(C(=O)NCC2(O)CCCC2)c1`, the RP-LC retention time amounted to 569 s.

`COc1ccc(C)cc1S(=O)(=O)N1CCCC(c2nnc(COc3ccccc3)o2)C1` (centres undefined) showed an RP-LC retention time of 891 s.

As to `CCn1c(=O)c(N2CCC(NC(=O)NCCCOC)CC2)nc2ccccc21`, the RP-LC retention time was 707 s.

Consider `Cc1ccc(-c2noc(Cn3c(=O)n(Cc4ccccc4Cl)c(=O)c4sccc43)n2)cc1C`, for which the RP-LC retention time worked out at 1290 s.

For `CCc1nc2cc3c(cc2n1CC(=O)Nc1cccc(OC)c1)OCCO3`, the RP-LC retention time came out at 660 s.

Compound `CCc1ccc2nc(Nc3ncc4c(n3)CC(c3ccc(OC)cc3)CC4=O)nc(C)c2c1` (centres undefined) gave an RP-LC retention time of 820 s.

In the case of `Cc1ccc(NC(=O)Cn2ccc3ccc(-c4nnc(C)o4)cc32)nc1`, the RP-LC retention time stood at 690 s.

For the compound `O=C(CCC1CCN(S(=O)(=O)c2ccccc2)CC1)NCc1ccco1`, the RP-LC retention time worked out at 776 s.

The compound `Cn1ncc2c3ccccc3n(CCCC(=O)NC3CCN(Cc4ccccc4)CC3)c2c1=O` had an RP-LC retention time of 655 s.
